US20040091947A1, “Screening strategy for anticancer drugs” (priority 2002, published 2004)

What was measured:
[1] = test system: HT1080 cells transduced with GSE56; test: FACS analysis of GF7/PI stained cells, radiation-induced changes in MI; format: cell-based, human; conditions: 4 mM caffeine, 9 Gy irradiation
Procedure: (§1) Mitotic index and the incidence of mitotic catastrophe were determined using mitotic cell specific antibodies (MCSA) as follows. Three different MCSA were compared using fluorescence activated cell sorting (FACS) based on immunofluorescence labeling with MCSA coupled with propidium iodide (PI) staining for DNA content. In this procedure, cells were washed, trypsinized, fixed with an equal volume of 70% ethanol (on ice), resuspended in a small volume of 1% BSA-PBS containing an MCSA, incubated for 1 hour at room temperature, and then washed and bound with secondary (fluorescently-labeled) antibody. The tested MCSA included MPM2 (available from Upstate Biotechnology, Cat. #05-368) and two antibodies provided by Dr. P. Davies (Albert Einstein College of Medicine), including the previously characterized TG3 (Anderson et al., 1998, Exp. Cell Res. 238: 498-502) and unpublished GF7 antibody.
(§2) FACS analysis of GF7/PI stained cells was used to analyze radiation-induced changes in the MI of HT1080 fibrosarcoma cells with different cell cycle checkpoint integrity status.

wild-type HT1080 cells = test: as above; format: cell-based, human; conditions: 4 mM caffeine, 9 Gy irradiation
Procedure: as §1, §2

BJ-ELB cells [2] = test: Fluorescence microscopy of DAPI-stained cells (micronuclei, apoptotic morphology, mitotic index, mitotic figures)
[3] = test system: panel of 14 solid tumor-derived cell lines; conditions: moderate equitoxic doses of doxorubicin, 14 lines, cited from earlier work
BJ-EN cells [4] = test: Cell growth / cell number by Coulter counter, doxorubicin-treated cells
BJ-ELB cells [5] = test: as above; format: cell-based, human
Procedure: These cell lines were cultured in a 4:1 mixture of DMEM and Medium 199, with 10% fetal calf serum, supplemented with glutamine, pyruvate, penicillin and streptomycin.
For comparative analysis of specific cellular responses, a concentration of 30 nM doxorubicin was chosen, which had approximately equal growth-inhibitory effect in both cell lines (FIG. 3B).

BJ-EN cells [6] = test: Fluorescence microscopy of DAPI-stained cells (micronuclei, apoptotic morphology, mitotic index, mitotic figures)
[7] = after release from 30 nM doxorubicin (3 days)
[8] = day 2 after release from 30 nM doxorubicin
[9] = two days after release from 30 nM doxorubicin (3 days)
[10] = two days after release from doxorubicin

Which results are given for `Cn1c(=O)c2c(ncn2C)n(C)c1=O` [caffeine]?
increase in MI after irradiation in the presence of caffeine [1]: up to 3 fold; increase in MI after irradiation in the presence of caffeine (wild-type HT1080 cells): ~2 fold

What does the source list for `COc1cccc2c1C(=O)c1c(O)c3c(c(O)c1C2=O)C[C@@](O)(C(=O)CO)C[C@@H]3O[C@H]1C[C@H](N)[C@H](O)[C@H](C)O1` [doxorubicin]?
effect of addition of doxorubicin on mitosis (BJ-ELB cells [2]; 30 nM doxorubicin present): only partially inhibited; fraction of cells with apoptotic morphology (BJ-ELB cells [2]; [7]): 6.6%; mitotic index (MI) (BJ-ELB cells [2]; [8]): 8.0%; micronucleated cell fraction (BJ-ELB cells [2]; [9]): 26.4%; mitotic figures that represented anaphase or telophase (BJ-ELB cells [2]; [10]): 1%; normal mitotic figures (BJ-ELB cells [2]; [10]): 8%; lines that showed predominantly apoptotic response ([3]; all other lines developed mitotic catastrophe): two; lines that exhibited the senescent phenotype after doxorubicin treatment [3]: Eleven of 14; change in cell number during doxorubicin treatment (BJ-EN cells [4]; 30 nM doxorubicin, 3 days, BJ-EN): essentially no change in cell number; resistance to doxorubicin (effect on cell growth) (BJ-EN cells [4]; 3-day exposure to different concentrations, BJ-EN compared with BJ-ELB, except for the lowest drug doses): more resistant to doxorubicin than BJ-ELB cells; change in cell number after release from the drug (BJ-EN cells [4]; three days in drug-free media after 30 nM doxorubicin for 3 days, BJ-EN): did not change significantly; change in cell number during doxorubicin treatment (BJ-ELB cells [5]; 30 nM doxorubicin, first day): increased their number on the first day; change in cell number after release from the drug (BJ-ELB cells [5]; day 3 after release (3 dR) from 30 nM doxorubicin): decreased to the same value as at the time of doxorubicin addition; effect of addition of doxorubicin on mitosis (BJ-EN cells [6]; 30 nM doxorubicin present): immediate and complete cessation of mitosis; fraction of cells with apoptotic morphology (BJ-EN cells [6]; [7]): 0.9%; mitotic index (MI) (BJ-EN cells [6]; [8]): 0.4%; micronucleated cell fraction (BJ-EN cells [6]; [9]): 1.7%; abnormal mitotic figures (BJ-EN cells [6]; [10]): 40%; mitotic figures that were metaphases and telophases (BJ-EN cells [6]; [10]): 29%; normal mitotic figures (BJ-EN cells [6]; [10]): 60%
